Data on 14 compounds can be found in ChEMBL document CHEMBL1201862, “PubChem BioAssay data set” (2004).

SMILES strings stand for the structures.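 Where inhibition never reached the appropriate level, the endpoint shown equals the highest concentration tested. Otherwise, values were interpolated linearly from a five-concentration, 48-hour dose response in 96-well plates. GI50 = concentration required for 50% inhibition of growth.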 Active and inactive are the calls of the source. No stated cut-off is given here; in the data, active = GI50 up to about 1.1 µM and inactive = higher.

Test systems include SN12C; U-251; RPMI-8226; MDA-MB-435; OVCAR-3; CAKI-1; NCI-H23; SW-620; SF-539; UACC-62; HCT-15; NCI-H460; LOX IMVI; SNB-19; SK-OV-3; MDA-N; A498.
Holding throughout (test): NCI anticancer screen, dose series, 48 h

In the case of `Cc1cc2nc3n(c2cc1C)C(c1c(F)cccc1F)SC3` (centres undefined), the GI50 in the experiment with SN12C was 19.5 µM (inactive); in the experiment with U-251, 16.1 µM (inactive); in the experiment with RPMI-8226, 25.4 µM (inactive); in the experiment with MDA-MB-435, 14.2 µM (inactive); in the experiment with OVCAR-3 it was 35.3 µM (inactive); in the experiment on CAKI-1, 17.3 µM (inactive). The GI50 in the experiment with NCI-H23 is 16.5 µM (inactive); in the experiment with SW-620, 21.3 µM (inactive); with SF-539, 19.9 µM (inactive); in the experiment on UACC-62, > 10 µM (inactive); in the experiment on HCT-15, over 10 µM; in the experiment with NCI-H460 it was 18.1 µM (inactive). The figures for the GI50 with LOX IMVI, in the experiment on SNB-19 and in the experiment on SK-OV-3 were 15.7 µM (inactive), 18.3 µM (inactive) and 62.7 µM (inactive), respectively.

For `Cc1ccc2nc(-c3ccc(N4C(=O)C(Cl)C4c4ccc(Cl)cc4)cc3)sc2c1` (centres undefined), the GI50 is 19.9 µM (inactive) in the experiment with SN12C; 19.2 µM (inactive) in the experiment on U-251; 11.5 µM (inactive) in the experiment with RPMI-8226; 17.4 µM (inactive) in the experiment on MDA-MB-435; 16.3 µM (inactive) in the experiment on OVCAR-3; 15.5 µM (inactive) in the experiment on CAKI-1. In addition, the GI50 in the experiment with NCI-H23 is 21.6 µM (inactive); in the experiment on MDA-N, 17.9 µM (inactive); in the experiment with SW-620, 21.5 µM (inactive); in the experiment with SF-539 it was 17.5 µM (inactive); in the experiment with UACC-62, 15.3 µM (inactive); in the experiment with HCT-15, 27.3 µM. The GI50 in the experiment on NCI-H460 is 21.9 µM (inactive); in the experiment on LOX IMVI it was 5.35 µM (inactive); with SNB-19 it was 33.1 µM (inactive); in the experiment on SK-OV-3 it was 12.7 µM (inactive).

In the case of `CC(=O)OCCOCn1c2c(c(=O)[nH]c1=O)CCC2`, the GI50 with SN12C, in the experiment with U-251, in the experiment on RPMI-8226, in the experiment on MDA-MB-435, in the experiment with OVCAR-3 and in the experiment on CAKI-1 was > 100 µM (inactive) each time. In addition, the GI50 is > 100 µM (inactive) with NCI-H23; > 100 µM (inactive) in the experiment on MDA-N; > 100 µM (inactive) with SW-620; > 100 µM (inactive) in the experiment on SF-539; over 100 µM in the experiment with HCT-15; > 100 µM (inactive) with LOX IMVI. For the same compound, the GI50 in the experiment on SNB-19 was 8.53 µM (inactive).

`N#Cc1[nH]c(=S)[nH]c1N`: the GI50 in the experiment with SN12C, in the experiment on A498, in the experiment on U-251, in the experiment on MDA-MB-435, in the experiment on OVCAR-3 and in the experiment on CAKI-1 was > 100 µM (inactive) each time. Besides, the GI50 in the experiment on NCI-H23 was > 100 µM (inactive); in the experiment on SW-620 it was > 100 µM (inactive); in the experiment with SF-539, > 100 µM (inactive); in the experiment with UACC-62, > 100 µM (inactive); with HCT-15 it was over 100 µM; in the experiment with NCI-H460 it was > 100 µM (inactive). The GI50 with LOX IMVI, in the experiment on SNB-19 and in the experiment on SK-OV-3 was > 100 µM (inactive) throughout.

With `COc1ccc(-c2c(C#N)c(S)n(NS(=O)(=O)c3ccc(C)cc3)c(=O)c2C#N)cc1`, the GI50 with SN12C was 17.2 µM (inactive); in the experiment on A498 it was 30.5 µM (inactive); in the experiment with U-251, 29.4 µM (inactive); with RPMI-8226, 3.42 µM (inactive); in the experiment with CAKI-1, 44.5 µM (inactive); in the experiment with MDA-N, 17.6 µM (inactive). The GI50 with SW-620 was 18.6 µM (inactive); in the experiment on SF-539, 14.6 µM (inactive); with UACC-62 it was 15.6 µM (inactive); in the experiment with HCT-15, 16 µM; in the experiment on NCI-H460, 32.6 µM (inactive); in the experiment with LOX IMVI, 13.9 µM (inactive). For the same compound, the GI50 is 35.8 µM (inactive) with SNB-19 and 32.8 µM (inactive) with SK-OV-3.

As to `COc1ccc2c3c1OC1C4(CCC5C(C2)N(CC2CC2)CCC351)OCCO4` (centres undefined), the GI50 in the experiment on SN12C, in the experiment on U-251, with RPMI-8226, in the experiment on MDA-MB-435, with OVCAR-3 and in the experiment with CAKI-1 was > 100 µM (inactive) in each case. In addition, the GI50 in the experiment on NCI-H23 is > 100 µM (inactive); with MDA-N, > 100 µM (inactive); in the experiment with SW-620, > 100 µM (inactive); with UACC-62, > 100 µM (inactive); with HCT-15 it was over 100 µM; in the experiment with NCI-H460, > 100 µM (inactive). Besides, the GI50 with LOX IMVI, with SNB-19 and in the experiment on SK-OV-3 was > 100 µM (inactive) throughout.

In the case of `COc1ccc(-c2ncn(C[Si](C)(C)C)c2-c2ccc(OC)cc2)cc1`, the GI50 with SN12C was 11 µM (inactive); with U-251, 6.9 µM (inactive); in the experiment with RPMI-8226 it was 1.69 µM (inactive); in the experiment on MDA-MB-435, 3.73 µM (inactive); with CAKI-1, 5.85 µM (inactive); with NCI-H23, 3.87 µM (inactive). The GI50 in the experiment on MDA-N is 3.1 µM (inactive); with SW-620, 3.05 µM (inactive); with SF-539 it was 10.5 µM (inactive); with UACC-62, 3.2 µM (inactive); in the experiment on HCT-15, 4.51 µM; in the experiment with NCI-H460 it was 3.77 µM (inactive). Further, the GI50 in the experiment with LOX IMVI is 4.89 µM (inactive); with SNB-19, 7.64 µM (inactive); in the experiment with SK-OV-3, 20 µM (inactive).

With `CCOc1ccc(NCC2CC/C(=C\C=C\c3ccccc3)C2=O)cc1` (centres undefined), the GI50 in the experiment on SN12C is 16.6 µM (inactive); with A498, 28.6 µM (inactive); in the experiment on U-251 it was 18.8 µM (inactive); in the experiment with RPMI-8226 it was 10.9 µM (inactive); with MDA-MB-435 it was 12.2 µM (inactive); with OVCAR-3, 18 µM (inactive). The GI50 in the experiment on CAKI-1 is 12.7 µM (inactive); in the experiment with NCI-H23, 18 µM (inactive); in the experiment with SW-620 it was 5.83 µM (inactive); with SF-539 it was 18.9 µM (inactive); in the experiment on UACC-62 it was 24.4 µM (inactive); in the experiment on HCT-15, 5.41 µM. Further, the GI50 in the experiment on NCI-H460 is 32 µM (inactive); in the experiment on LOX IMVI it was 11 µM (inactive); with SNB-19, 24 µM (inactive); in the experiment on SK-OV-3, > 100 µM (inactive).

On to `O=C1NC(=S)NC(=O)C1=C/C=C/c1ccc([N+](=O)[O-])cc1`, for which the GI50 in the experiment on SN12C is 15.8 µM (inactive); with U-251, 4 µM (inactive); in the experiment with RPMI-8226 it was 7.24 µM (inactive); in the experiment with MDA-MB-435 it was 10.4 µM (inactive); with OVCAR-3 it was 14.3 µM (inactive); in the experiment on CAKI-1, 15.2 µM (inactive). Also, the GI50 in the experiment on NCI-H23 was 13.9 µM (inactive); in the experiment with MDA-N it was 8.71 µM (inactive); in the experiment on SW-620, 4.9 µM (inactive); in the experiment on SF-539, 13.8 µM (inactive); with UACC-62, 11 µM (inactive); in the experiment on HCT-15, 14.3 µM. The GI50 is 27 µM (inactive) in the experiment on NCI-H460, 6.76 µM (inactive) in the experiment with LOX IMVI, 17.1 µM (inactive) in the experiment on SNB-19 and 20.2 µM (inactive) in the experiment on SK-OV-3.

Take `N/C(CSCCSC/C(N)=N/O)=N\O`: the GI50 in the experiment with SN12C, in the experiment with U-251, in the experiment with RPMI-8226, in the experiment on MDA-MB-435, with OVCAR-3 and in the experiment with CAKI-1 was > 100 µM (inactive) throughout. Besides, the GI50 with NCI-H23 is > 100 µM (inactive); with MDA-N, > 100 µM (inactive); in the experiment with SW-620, > 100 µM (inactive); in the experiment on SF-539 it was > 100 µM (inactive); with UACC-62, > 100 µM (inactive); in the experiment with HCT-15, over 100 µM. Moreover, the GI50 in the experiment with NCI-H460, in the experiment with LOX IMVI, in the experiment on SNB-19 and with SK-OV-3 was > 100 µM (inactive) in each case.

`Cc1nc2cn3c(c2c(=O)[nH]1)CCCCC3`: the GI50 in the experiment with A498, with U-251, with RPMI-8226, in the experiment on MDA-MB-435, in the experiment with CAKI-1 and in the experiment with NCI-H23 was > 100 µM (inactive) throughout. The GI50 in the experiment with SW-620 is > 100 µM (inactive); with SF-539, > 100 µM (inactive); in the experiment with UACC-62, > 100 µM (inactive); with HCT-15, over 100 µM; with NCI-H460, > 100 µM (inactive); with LOX IMVI, > 100 µM (inactive). Also, the GI50 in the experiment with SNB-19 and with SK-OV-3 was > 100 µM (inactive) each time.

For `O=CNNC(=O)Nc1ccc(Cl)cc1`, the GI50 was > 100 µM (inactive) in the experiment on SN12C; 29.6 µM (inactive) with A498; > 100 µM (inactive) in the experiment on U-251; > 100 µM (inactive) in the experiment with RPMI-8226; > 100 µM (inactive) in the experiment on MDA-MB-435; > 100 µM (inactive) in the experiment on NCI-H23. The GI50 with SW-620 is > 100 µM (inactive); with SF-539 it was > 100 µM (inactive); with UACC-62 it was > 100 µM (inactive); with HCT-15, over 100 µM; with SNB-19, 95.7 µM (inactive); in the experiment with SK-OV-3, > 100 µM (inactive).

Consider `O=C(O)Cc1cccc2c1OC(c1ccccc1)C(C(=O)c1ccccc1)C2=O` (centres undefined), for which the GI50 in the experiment on SN12C is 45.8 µM (inactive); in the experiment on U-251, 40.9 µM (inactive); with RPMI-8226, 33.6 µM (inactive); in the experiment with MDA-MB-435, 35 µM (inactive); in the experiment on OVCAR-3 it was > 100 µM (inactive); with CAKI-1, 42.1 µM (inactive). Moreover, the GI50 in the experiment on NCI-H23 was 29.5 µM (inactive); in the experiment on MDA-N, 33.8 µM (inactive); in the experiment with SW-620, 37.8 µM (inactive); with SF-539 it was 51.5 µM (inactive); with UACC-62 it was 13.4 µM (inactive); in the experiment on HCT-15 it was 98.4 µM. Moreover, the GI50 was 30.5 µM (inactive) in the experiment on NCI-H460, 83.8 µM (inactive) in the experiment with LOX IMVI, 45.9 µM (inactive) in the experiment with SNB-19 and 2.07 µM (inactive) in the experiment on SK-OV-3.

Regarding `OC[C@H]1O[C@@H]2O[C@@](COCc3ccccc3)([C@H](OCc3ccccc3)[C@H]2O)[C@@H]1OCc1ccccc1`, the GI50 with SN12C was 15.7 µM (inactive); with A498, 18.1 µM (inactive); in the experiment on U-251, 15.7 µM (inactive); with RPMI-8226, 13.7 µM (inactive); in the experiment on MDA-MB-435, 17.3 µM (inactive); in the experiment on OVCAR-3, 14.6 µM (inactive). Further, the GI50 with CAKI-1 is 15.7 µM (inactive); in the experiment with NCI-H23, 16.6 µM (inactive); with SW-620, 20.2 µM (inactive); in the experiment on SF-539, 17.5 µM (inactive); in the experiment on UACC-62 it was 14.4 µM (inactive); in the experiment on HCT-15, 18.8 µM. In addition, the GI50 was 17 µM (inactive) in the experiment on NCI-H460, 16.7 µM (inactive) with LOX IMVI, 17.6 µM (inactive) in the experiment with SNB-19 and 14.8 µM (inactive) in the experiment with SK-OV-3.
